Data set [1] is described as follows: Cmax in Sprague-Dawley rat at 10 mg/kg, po measured upto 24 hrs by LC-MS/MS analysis. The note with it: in vivo. Details: dose 10 mg/kg, route oral. Type of data set: ADME, organism-based.
A further data set concerns the target Cytochrome P450 2D6 (Homo sapiens, UniProt P10635). The experiment in a line: Inhibition of CYP2D6 in human liver microsomes using dextromethorphan as substrate incubated for 10 mins followed by substrate addition further incubated for 10 mins by LC-MS/MS analysis. Type of data set: ADME.
For the next data set, the target named is T1, Bile acid receptor (Homo sapiens, UniProt Q96RI1).
T1 sequence (Q96RI1 whole entry): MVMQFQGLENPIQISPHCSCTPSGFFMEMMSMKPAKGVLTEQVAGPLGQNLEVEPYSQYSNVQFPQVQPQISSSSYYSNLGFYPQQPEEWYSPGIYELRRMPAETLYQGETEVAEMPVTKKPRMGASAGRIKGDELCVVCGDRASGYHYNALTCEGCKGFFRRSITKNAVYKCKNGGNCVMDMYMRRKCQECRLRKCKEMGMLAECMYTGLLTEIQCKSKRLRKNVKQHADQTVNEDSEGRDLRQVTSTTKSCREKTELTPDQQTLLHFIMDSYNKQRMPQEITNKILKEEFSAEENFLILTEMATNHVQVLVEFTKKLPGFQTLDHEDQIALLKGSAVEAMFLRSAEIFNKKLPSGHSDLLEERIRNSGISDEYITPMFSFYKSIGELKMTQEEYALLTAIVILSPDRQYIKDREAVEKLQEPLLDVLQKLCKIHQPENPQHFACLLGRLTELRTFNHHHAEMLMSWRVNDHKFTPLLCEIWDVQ
Kind of data set: Binding affinity to human recombinant GST-tagged FXR LBD (193-472 residues) expressed in baculovirus infected insect cells incubated for 1 hr by luminometry.

Data set [2] can be described thus: Volume of distribution at steady state in Sprague-Dawley rat at 1 mg/kg, iv measured upto 24 hrs by LC-MS/MS analysis. Type of data set: ADME, organism-based. The note with it: in vivo, read-out: Vdss.
The target in data set [3] is Voltage-gated inwardly rectifying potassium channel KCNH2 (Homo sapiens, UniProt Q12809). Kind of data set: Inhibition of human ERG expressed in CHO-K1 cells by whole-cell patch clamp assay. Type of data set: cell-based. (In general: In patch-clamp work, channel activity is measured electrically.)
Data set [4] in a line: Efflux ratio of apparent permeability across basolateral to apical over apical to basolateral side in human Caco2 cells at 2 uM incubated for 120 mins by LC-MS/MS analysis. Type of data set: ADME, cell-based. The note with it: Caco-2. (Caco-2 cells form a polarised layer with tight junctions and transporters.)
The nature of data set [5]: AUC (0 to last) in C57BL/6J mouse at 10 mg/kg, po measured upto 24 hrs by LC-MS/MS analysis. Type of data set: ADME, organism-based. On the set-up: dose 10 mg/kg, route oral, time 0 - last. To be noted: in vivo.
In the next data set the target is Cytochrome P450 2C19 (Homo sapiens, UniProt P33261). Kind of data set: Inhibition of CYP2C19 in human liver microsomes using S-mephenytoin as substrate incubated for 10 mins followed by substrate addition further incubated for 10 mins by LC-MS/MS analysis. Type of data set: ADME. (In general: Liver microsomes are vesicles of endoplasmic reticulum, rich in cytochrome P450 enzymes.)

Data set [6] can be described thus: Apparent permeability across apical to basolateral side in human Caco2 cells at 2 uM incubated for 120 mins by LC-MS/MS analysis. Type of data set: ADME, cell-based. The note with it: Caco-2.
The target in data set [7] is T2, Peroxisome proliferator-activated receptor delta (Homo sapiens) (UniProt Q03181).
T2 sequence (whole entry): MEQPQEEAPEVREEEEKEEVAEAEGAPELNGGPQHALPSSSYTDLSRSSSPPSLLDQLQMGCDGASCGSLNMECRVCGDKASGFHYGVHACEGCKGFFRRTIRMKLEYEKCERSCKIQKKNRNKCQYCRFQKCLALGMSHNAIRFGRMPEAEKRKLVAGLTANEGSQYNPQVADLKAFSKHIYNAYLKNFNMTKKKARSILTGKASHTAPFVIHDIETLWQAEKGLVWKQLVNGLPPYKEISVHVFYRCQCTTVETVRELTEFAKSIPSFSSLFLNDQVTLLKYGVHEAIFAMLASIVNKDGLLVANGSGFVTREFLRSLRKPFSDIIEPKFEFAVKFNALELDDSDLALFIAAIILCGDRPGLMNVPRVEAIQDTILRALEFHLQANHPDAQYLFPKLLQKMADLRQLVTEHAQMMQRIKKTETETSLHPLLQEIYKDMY
Kind of data set: Agonist activity at PPARbeta (unknown origin) incubated for 3 to 16 hrs by pathhunter nuclear hormone receptor assay relative to L-165,041.

A short description of data set [8]: Tmax in Sprague-Dawley rat at 10 mg/kg, po measured upto 24 hrs by LC-MS/MS analysis. Type of data set: ADME, organism-based. To be noted: in vivo.
Data set [9] is described as follows: Stability in rat plasma assessed as remaining compound incubated for 2 hrs. Type of data set: ADME, cell-free. To be noted: read-out: Stability.
A short description of data set [10]: Protein binding in human plasma at 2 uM incubated for 4 hrs by LC-MS/MS analysis. Type of data set: ADME, cell-free.
For data set [11], the target named is T3, Peroxisome proliferator-activated receptor gamma (Homo sapiens) (UniProt P37231).
T3 sequence (whole entry): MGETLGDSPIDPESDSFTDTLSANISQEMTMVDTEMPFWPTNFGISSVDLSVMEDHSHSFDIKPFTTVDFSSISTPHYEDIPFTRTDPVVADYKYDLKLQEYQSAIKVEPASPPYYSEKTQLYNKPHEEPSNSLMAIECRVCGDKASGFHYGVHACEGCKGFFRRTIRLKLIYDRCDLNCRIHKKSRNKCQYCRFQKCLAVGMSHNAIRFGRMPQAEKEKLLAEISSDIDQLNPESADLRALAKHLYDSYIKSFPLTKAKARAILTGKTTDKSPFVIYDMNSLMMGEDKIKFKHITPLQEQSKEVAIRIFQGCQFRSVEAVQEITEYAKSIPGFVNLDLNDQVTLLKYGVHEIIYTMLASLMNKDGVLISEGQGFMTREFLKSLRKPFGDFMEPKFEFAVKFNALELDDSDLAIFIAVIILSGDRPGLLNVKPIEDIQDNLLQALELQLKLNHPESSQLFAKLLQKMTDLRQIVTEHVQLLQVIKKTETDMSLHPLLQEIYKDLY
Kind of data set: Agonist activity at PPARgamma (unknown origin) incubated for 3 to 16 hrs by pathhunter nuclear hormone receptor assay relative to Troglitazone.

For data set [12], the target named is T4, Peroxisome proliferator-activated receptor alpha (Homo sapiens) (UniProt Q07869).
T4 sequence (whole entry): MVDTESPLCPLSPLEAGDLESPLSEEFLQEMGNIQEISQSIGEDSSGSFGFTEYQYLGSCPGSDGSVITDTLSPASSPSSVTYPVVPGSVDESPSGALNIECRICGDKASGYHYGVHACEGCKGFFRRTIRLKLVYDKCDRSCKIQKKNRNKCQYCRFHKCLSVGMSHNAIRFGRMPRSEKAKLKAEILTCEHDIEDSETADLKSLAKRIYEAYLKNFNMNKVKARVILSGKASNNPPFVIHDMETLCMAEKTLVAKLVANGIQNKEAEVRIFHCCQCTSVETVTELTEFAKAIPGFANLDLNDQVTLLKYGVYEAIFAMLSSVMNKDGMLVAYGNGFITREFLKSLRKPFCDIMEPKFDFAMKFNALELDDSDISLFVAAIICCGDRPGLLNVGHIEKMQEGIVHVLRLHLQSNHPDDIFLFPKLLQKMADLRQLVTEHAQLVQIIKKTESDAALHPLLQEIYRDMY
The experiment in a line: Agonist activity at PPARalpha (unknown origin) incubated for 3 to 16 hrs by pathhunter nuclear hormone receptor assay relative to GW7647. Details: concentration or dose not given beside the values.

A short description of data set [13]: Tmax in C57BL/6J mouse at 10 mg/kg, po measured upto 24 hrs by LC-MS/MS analysis. To be noted: in vivo. Type of data set: ADME, organism-based.

For orientation: Cmax means the maximum level reached in the sampled fluid or tissue. Broadly, the IC50 is the concentration at which inhibition is half-maximal. Usually efflux ratio stands for a quotient of directional permeabilities that is used to spot active efflux. One may read the AUC(0-t) as the area under the concentration-time curve up to a stated or last time point. Broadly, the Papp A→B is how fast a substance crosses the layer from the apical side. The Tmax is the time at which the peak concentration occurs. The term fraction unbound denotes the share of the substance not bound to proteins or other matrix.

Sequence of Voltage-gated inwardly rectifying potassium channel KCNH2 (Q12809 whole entry): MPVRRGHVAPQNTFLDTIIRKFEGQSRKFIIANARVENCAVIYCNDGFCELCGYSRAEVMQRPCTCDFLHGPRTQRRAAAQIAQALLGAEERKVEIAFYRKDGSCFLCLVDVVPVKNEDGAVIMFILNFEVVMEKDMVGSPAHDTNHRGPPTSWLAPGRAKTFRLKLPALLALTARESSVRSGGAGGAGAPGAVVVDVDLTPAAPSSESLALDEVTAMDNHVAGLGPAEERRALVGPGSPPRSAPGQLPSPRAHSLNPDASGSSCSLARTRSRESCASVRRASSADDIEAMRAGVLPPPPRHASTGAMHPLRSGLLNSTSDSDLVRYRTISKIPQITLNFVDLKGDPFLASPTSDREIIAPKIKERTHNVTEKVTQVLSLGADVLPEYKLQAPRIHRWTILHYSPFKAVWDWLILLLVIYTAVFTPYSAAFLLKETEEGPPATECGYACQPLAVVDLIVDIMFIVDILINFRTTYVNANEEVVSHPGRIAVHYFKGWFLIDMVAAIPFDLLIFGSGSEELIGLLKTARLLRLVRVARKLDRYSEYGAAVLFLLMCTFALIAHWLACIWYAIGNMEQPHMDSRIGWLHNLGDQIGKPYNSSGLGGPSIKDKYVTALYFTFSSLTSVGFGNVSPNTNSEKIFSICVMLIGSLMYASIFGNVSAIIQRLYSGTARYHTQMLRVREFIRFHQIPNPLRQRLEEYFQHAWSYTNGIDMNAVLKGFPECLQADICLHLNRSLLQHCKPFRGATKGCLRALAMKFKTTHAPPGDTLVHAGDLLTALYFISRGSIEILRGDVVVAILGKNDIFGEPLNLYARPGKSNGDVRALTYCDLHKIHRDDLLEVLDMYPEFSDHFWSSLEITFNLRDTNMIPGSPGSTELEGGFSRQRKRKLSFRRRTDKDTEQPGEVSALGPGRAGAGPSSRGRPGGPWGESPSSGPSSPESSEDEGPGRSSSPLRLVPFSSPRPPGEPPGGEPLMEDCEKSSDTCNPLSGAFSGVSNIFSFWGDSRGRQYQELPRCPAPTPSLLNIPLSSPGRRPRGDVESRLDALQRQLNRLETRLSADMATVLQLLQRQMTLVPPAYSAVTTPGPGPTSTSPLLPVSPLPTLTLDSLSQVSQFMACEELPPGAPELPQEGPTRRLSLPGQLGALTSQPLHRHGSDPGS
Sequence of Cytochrome P450 2C19 (P33261 whole entry): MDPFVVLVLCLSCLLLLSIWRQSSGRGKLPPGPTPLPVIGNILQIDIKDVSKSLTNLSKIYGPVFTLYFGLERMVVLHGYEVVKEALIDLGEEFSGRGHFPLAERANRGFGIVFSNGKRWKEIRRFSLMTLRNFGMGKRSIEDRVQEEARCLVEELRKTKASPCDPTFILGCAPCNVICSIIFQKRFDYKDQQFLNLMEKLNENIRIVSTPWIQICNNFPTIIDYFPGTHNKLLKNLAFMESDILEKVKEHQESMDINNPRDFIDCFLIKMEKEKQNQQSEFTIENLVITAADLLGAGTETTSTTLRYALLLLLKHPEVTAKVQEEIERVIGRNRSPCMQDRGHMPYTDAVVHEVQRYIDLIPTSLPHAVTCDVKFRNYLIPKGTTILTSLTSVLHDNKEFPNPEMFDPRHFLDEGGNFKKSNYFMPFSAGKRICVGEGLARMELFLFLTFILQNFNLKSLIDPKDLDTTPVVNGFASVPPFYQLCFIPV
Sequence of Cytochrome P450 2D6 (P10635 whole entry): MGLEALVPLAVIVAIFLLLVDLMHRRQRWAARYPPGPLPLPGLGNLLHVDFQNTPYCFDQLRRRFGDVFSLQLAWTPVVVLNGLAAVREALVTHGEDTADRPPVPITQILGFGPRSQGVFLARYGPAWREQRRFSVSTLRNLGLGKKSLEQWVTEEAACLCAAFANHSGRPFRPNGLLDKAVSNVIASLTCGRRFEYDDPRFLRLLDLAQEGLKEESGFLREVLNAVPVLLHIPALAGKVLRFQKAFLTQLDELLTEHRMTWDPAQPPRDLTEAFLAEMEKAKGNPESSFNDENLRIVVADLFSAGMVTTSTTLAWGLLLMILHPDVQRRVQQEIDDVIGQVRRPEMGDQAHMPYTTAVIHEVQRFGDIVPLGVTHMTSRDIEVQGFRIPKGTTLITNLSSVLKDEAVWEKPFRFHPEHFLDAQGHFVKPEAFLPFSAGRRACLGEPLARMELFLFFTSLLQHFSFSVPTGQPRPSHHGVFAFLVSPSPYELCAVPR

Take `Cc1cc(Cc2cc(-c3ccc(Br)cc3)on2)cc(C)c1OC(C)(C)C(=O)O`: the peak level in data set [1] (Cmax) was 65.3 µM. Also, the IC50 is more than 50 µM against Cytochrome P450 2D6, more than 50 µM on Bile acid receptor, more than 30 µM in data set [3] and more than 50 µM against Cytochrome P450 2C19. In addition, the Vd in data set [2] was determined as 0.16 L/kg. Also, the efflux ratio at 2 h, 2 µM in data set [4] is 0.4. In data set [5], this molecule had an AUC(0-t) at 24 h of 63.2 µM·h. For the same molecule, in data set [6], the Papp A→B at 2 h, 2 µM came to 0.5 ×10⁻⁶ cm/s. Further, the values for the Activity in data set [7], in data set [11] and in [12] were 79%, 110% and 92%, respectively. The Tmax in data set [8] amounted to 79.8 min; in data set [13], 19.8 min. The remaining at 2 h in data set [9] is 96%. The fraction unbound at 4 h, 2 µM in [10] is less than 0.001.
